Read-outs that look alike come from different tables or passages of the source.

One experiment has as its system PANC08.13 cells. The experiment can be described thus: Cellular phospho-ERK assay, PANC08.13 cells (homozygous KRAS-G12D). Type of experiment: cell-based. The settings on record: Homo sapiens, read-out: PANC-08.13 pERK IC50. The procedure:
Procedure for Cellular Phospho-ERK Assay in KRAS Wild Type and Mutant (G12D, G12V) Cell Lines
MKN-1 cells (JCRB JCRB0252) containing amplified wild-type KRAS, were cultured in growth medium that contains RPMI 1640-GlutaMAX™-I (ThermoFisher Scientific 61870) containing 10% heat inactivated fetal bovine serum (ThermoFisher Scientific 10091148), 1 mM sodium pyruvate and 10 mM HEPES. PANC08.13 cells (ATCC® CRL-2551™), containing homozygous KRAS-G12D activating mutation, were cultured in growth medium made of RPMI1640-GlutaMAX™-I (ThermoFisher Scientific 61870) containing 15% heat inactivated fetal bovine serum (ThermoFisher Scientific 10091148)). AsPC-1 cells (ATCC® CRL-1682™), containing homozygous KRAS-G12D activating mutation, were cultured in T150 flask in growth medium (RPMI medium 1640-GlutaMAX™-I (ThermoFisher Scientific 61870) containing 10% fetal bovine serum (ThermoFisher Scientific 10091148)). SW620 cells (ATCC® […]), containing homozygous KRAS-G12V activating mutation, were cultured in growth medium that contains RPMI 1640-GlutaMAX™-I (ThermoFisher Scientific 61870) containing 10% heat inactivated fetal bovine serum (ThermoFisher Scientific 10091148).
Cells for the assay were harvested in growth medium after TrypLE (ThermoFisher scientific 12604021) digestion and were seeded in a 384-well collagen coated cell culture plate (Corning 356702) at a density of 10,000-15,000 cells/20 μL/well, and incubated at 37° C., 5% CO2 overnight. The compound (with 10 mM stock concentration) dose-response titrations were prepared [30 μM final ERK detection assay concentration and 1:3 dilutions, 10-point dose response] and appropriate amounts (270 nL) of test compounds were dispensed in a 384-well intermediate plate using an Echo 550 liquid handler. 30 μL/well of RPMI medium 1640-GlutaMAX™—I was added to the intermediate plate and the contents of the intermediate plate (10 μL/well) were then transferred to the 384-well collagen coated cell culture plate, which was incubated at 37° C., 5% CO2 for 2 hours. After removal of medium from the collagen coated cell culture plate, cells were lysed in lysis buffer from Alpha SureFire® Ultra™ Multiplex p-ERK and total ERK assay kit (PerkinElmer MPSU-PTERK) containing Halt™ Protease and Phosphatase inhibitor cocktail (ThermoFisher Scientific 78446) at room temperature with constant shaking at 300 rpm for 30 minutes. The cell lysates were then transferred to an OptiPlate-384 plate (PerkinElmer 6005620), and the phosphorylation of ERK (p-ERK) and total ERK levels were detected by Alpha SureFire® Ultra™ Multiplex p-EEK kit and total ERK assay kit (PerkinElmer MPSU-PTERK) following the manufacturer's protocol. Assay plates were read on a En Vision Multimode Plate Reader (PerkinElmer), and the ratio of p-ERK vs. total ERK in each well was used as the final readout. Dose response curves were analyzed using a 4-parameter logistic model to calculate IC50 values using Spotfire software.

Another experiment concerns the target KRAS-G13D (Homo sapiens, UniProt P01116, G13D). The experiment in a line: SOS-catalyzed nucleotide exchange assay (Procedure A, TR-FRET), KRAS-G13D. Type of experiment: biochemical. The settings on record: nucleotide exchange, Procedure A; read-out: KRAS G13D GNE IC50.
The target of a further experiment is KRAS-WT (Homo sapiens, UniProt P01116). The experiment in a line: SOS-catalyzed nucleotide exchange assay (Procedure A, TR-FRET), KRAS-WT. Type of experiment: biochemical. The settings on record: nucleotide exchange, read-out: KRAS WT GNE IC50. A digest of the protocol: (§1)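 Biotinylated RAS (KRAS-G12C carries C51S/C80L/C118S; others WT background) preloaded with Bodipy-GDP plus Tb-streptavidin, preincubated with compound 60 min at RT, then human SOS and 3 mM GTP added. Final RAS/SOS: G12C 3 nM/40 nM, 60 min; WT 1 nM/40 nM, 60 min; G12V 1.25 nM/160 nM, 90 min; NRAS 1.25 nM/40 nM, 60 min. TR-FRET 520/495 ratio normalized to DMSO and saturating inhibitor; 10-point curves fit four-parameter logistic.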
KRAS-WT, sequence (P01116 with tags, fused parts or gaps isoform P01116-2): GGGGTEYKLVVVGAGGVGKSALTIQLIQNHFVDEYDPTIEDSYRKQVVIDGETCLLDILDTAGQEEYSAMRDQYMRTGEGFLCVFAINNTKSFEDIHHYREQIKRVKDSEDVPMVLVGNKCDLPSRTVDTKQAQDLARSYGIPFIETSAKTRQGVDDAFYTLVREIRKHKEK

Experiment [1] deals with KRAS-G12C (C51S/C80L/C118S) (Homo sapiens, UniProt P01116, C118S/C51S/C80L/G12C). The experiment can be described thus: SOS-catalyzed nucleotide exchange assay (Procedure A, TR-FRET), KRAS-G12C. Type of experiment: biochemical. The settings on record: nucleotide exchange, Procedure A; read-out: KRAS G12C GNE IC50. In a few lines: as §1
KRAS-G12C (C51S/C80L/C118S), sequence (P01116 with tags, fused parts or gaps isoform P01116-2 G12C/C51S/C80L/C118S): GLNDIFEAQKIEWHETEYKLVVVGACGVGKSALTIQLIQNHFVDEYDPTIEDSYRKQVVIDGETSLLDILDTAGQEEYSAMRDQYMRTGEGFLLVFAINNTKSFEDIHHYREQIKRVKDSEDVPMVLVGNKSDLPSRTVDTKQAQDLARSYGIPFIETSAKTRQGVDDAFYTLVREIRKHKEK
On the technique in general: In TR-FRET formats the signal depends on donor and acceptor labels being close together.

A further experiment has as its target KRAS-G12D (Homo sapiens, UniProt P01116, G12D). The experiment can be described thus: SOS-catalyzed nucleotide exchange assay (Procedure A, TR-FRET), KRAS-G12D. The settings on record: nucleotide exchange, read-out: KRAS G12D GNE IC50. Type of experiment: biochemical. In a few lines:
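Signal ratio (520/495 nm, excitation 340 nm) reports Bodipy-GDP retention on biotinylated RAS after SOS-catalyzed exchange with 3 mM GTP. SOS was 40 nM, except 160 nM for G12V. Room-temperature exchange lasted 60 min (90 min for G12V), following a 60 min compound preincubation.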

The next experiment has as its target KRAS-G12V (Homo sapiens, UniProt P01116, G12V). The experiment in a line: SOS-catalyzed nucleotide exchange assay (Procedure A, TR-FRET), KRAS-G12V. As to conditions: nucleotide exchange, read-out: KRAS G12V GNE IC50. Type of experiment: biochemical. A digest of the protocol: as §1
Another experiment deals with AsPC-1 cells. The experiment in a line: Cellular phospho-ERK assay, AsPC-1 cells (homozygous KRAS-G12D). Type of experiment: cell-based. As to conditions: Homo sapiens, ASPC1, 2 h, KRAS-G12D, 2 hours, read-out: AsPC1 pERK IC50. A digest of the protocol: (§2)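 p-ERK/total ERK ratio, measured by AlphaLISA SureFire Ultra multiplex in lysates, was fitted to a 4-parameter logistic model for IC50. Compound exposure was 2 h at 37° C, 5% CO2, 10-point 1:3 dilutions from 30 μM final, on cells plated the previous night.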

The next experiment has as its system MKN-1 cells. The experiment can be described thus: Cellular phospho-ERK assay, MKN-1 cells (amplified wild-type KRAS). Format: cell-based. The settings on record: Homo sapiens, amplified wild-type KRAS, 2 hours, read-out: MKN1 pERK IC50. A digest of the protocol:
as §2

For the next experiment, the system named is SW620 cells. The experiment can be described thus: Cellular phospho-ERK assay, SW620 cells (homozygous KRAS-G12V). As to conditions: Homo sapiens, SW-620, KRAS-G12V, 2 hours, read-out: SW620 pERK IC50. Format: cell-based. In a few lines:
as §2

The mark [2] stands for this setting: PANC-08-13, 2 hours compound incubation.

KRAS-G12D, sequence (P01116 with tags, fused parts or gaps isoform P01116-2 G12D): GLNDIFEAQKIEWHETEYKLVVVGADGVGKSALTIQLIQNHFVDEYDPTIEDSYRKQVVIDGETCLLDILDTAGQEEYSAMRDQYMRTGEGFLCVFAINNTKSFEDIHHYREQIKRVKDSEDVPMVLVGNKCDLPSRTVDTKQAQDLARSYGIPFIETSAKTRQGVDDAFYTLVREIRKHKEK
KRAS-G13D, sequence (P01116 with tags, fused parts or gaps isoform P01116-2 G13D): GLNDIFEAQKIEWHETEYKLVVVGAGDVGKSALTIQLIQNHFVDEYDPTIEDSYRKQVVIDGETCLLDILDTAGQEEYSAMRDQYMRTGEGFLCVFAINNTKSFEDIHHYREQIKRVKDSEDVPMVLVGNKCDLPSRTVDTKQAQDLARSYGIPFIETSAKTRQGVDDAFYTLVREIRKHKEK
KRAS-G12V, sequence (P01116 with tags, fused parts or gaps isoform P01116-2 G12V): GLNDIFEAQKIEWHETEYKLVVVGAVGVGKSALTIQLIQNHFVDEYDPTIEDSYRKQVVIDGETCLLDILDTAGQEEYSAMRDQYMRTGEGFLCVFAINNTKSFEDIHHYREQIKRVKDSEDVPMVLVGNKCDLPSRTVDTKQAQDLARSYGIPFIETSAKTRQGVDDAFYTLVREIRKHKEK

As to `Cc1cc2[nH]ncc2c(-c2nccc3c2sc2nc(OC[C@@]45CCCN4C[C@H](F)C5)nc(NC4COC4)c23)c1C(F)(F)F` [Ex-184, 2-(((2R,7aS)-2-fluoro-tetrahydro-1H-pyrrolizin-7a(5H)-yl)methoxy)-8-(6-methyl-5-(trifluorometh-yl)-1H-indazol-4-yl)-N-(oxetan-3-yl)pyrido [4′,3′:4,5]thieno[2,3-d] pyrimidin-4-amine], the IC50 (in general, the point on the concentration scale where inhibition reaches its midpoint) in the experiment on PANC08.13 cells (setting [2]) is 812 nM; at KRAS-G13D, 668 nM; at KRAS-WT, 822 nM; in experiment [1] it was 96.7 nM; at KRAS-G12D, 591 nM; at KRAS-G12V, 194 nM.

With `Cc1cc(-c2nccc3c2sc2nc(OC[C@@]45CCCN4C[C@H](F)C5)nc(N4CCOC[C@@](C)(O)C4)c23)c2cn[nH]c2c1` [Ex-37, (S)-4-(2-(((2R,7aS)-2-fluorotetrahydro-1H-pyrrolizin-7a(5H)-yl)methoxy)-8-(6-methyl-1H-indazol-4-yl)pyrido[4′,3′:4,5]thieno[2,3-d]pyrimidin-4-yl)-6-methyl-1,4-oxazepan-6-ol], the IC50 with PANC08.13 cells (PANC-08-13, KRAS-G12D, 2 hours) was 1800 nM; at KRAS-G13D, 2450 nM; at KRAS-WT, 3070 nM; in experiment [1], 1480 nM; on KRAS-G12D it was 1450 nM; on KRAS-G12V, 1490 nM.

`CCn1c2nc(OC[C@@]34CCCN3C[C@H](F)C4)nc(N3CCOC[C@@](C)(O)C3)c2c2ccnc(-c3c(C(F)(F)F)c(C)cc4[nH]ncc34)c21` [Ex-24, (6S)-4-(9-ethyl-2-(((2R,7aS)-2-fluorotetrahydro-1H-pyrrolizin-7a(5H)-yl)methoxy)-8-(6-methyl-5-(trifluoromethyl)-1H-indazol-4-yl)-9H-pyrido[4′,3′:4,5]pyrrolo[2,3-d]pyrimidin-4-yl)-6-methyl-1,4-oxazepan-6-ol]: the IC50 in the experiment with PANC08.13 cells (PANC-08-13, KRAS-G12D, 2 hours) is 749 nM; on KRAS-G13D it was 1020 nM; at KRAS-WT, 929 nM; in experiment [1] it was 224 nM; at KRAS-G12D it was 705 nM; on KRAS-G12V it was 492 nM.

Regarding `C[C@@]1(O)COCCN(c2nc(OC[C@@]34CCCN3C[C@H](F)C4)nc3sc4c(-c5ccc(F)c6sc(N)c(C#N)c56)cncc4c23)C1` [Ex-274, 2-amino-7-fluoro-4-(2-(((2R,7aS)-2-fluorotetrahydro-1H-pyrrolizin-7a(5H)-yl)methoxy)-4-((S)-6-hydroxy-6-methyl-1,4-oxazepan-4-yl)pyrido[3′,4′:4,5]thieno[2,3-d]pyrimidin-8-yl)benzo[b]thiophene-3-carbonitrile], the IC50 was 1010 nM in the experiment with PANC08.13 cells (PANC-08-13, KRAS-G12D, 2 hours); 87.6 nM at KRAS-G13D; 330 nM at KRAS-WT; 121 nM in experiment [1]; 671 nM on KRAS-G12D; 401 nM at KRAS-G12V.

As for `Cc1cc2[nH]ncc2c(-c2nccc3c4c(N5CC6CCC(F)(C5)N6)nc(OC[C@@]56CCCN5C[C@H](F)C6)nc4n(C)c23)c1C(F)(F)F` (single isomer, unassigned) [Ex-22], the IC50 in the experiment with PANC08.13 cells (PANC-08-13, KRAS-G12D, 2 hours) came to 3510 nM; on KRAS-G13D, 456 nM; on KRAS-WT, 975 nM; in [1], 189 nM; at KRAS-G12D, 2440 nM; on KRAS-G12V, 409 nM.

Take `Cc1cc2[nH]ncc2c(-c2nccc3c2sc2nc(OC[C@@]45CCCN4C[C@H](F)C5)nc(N4CCOC[C@@](C)(O)C4)c23)c1C#N` [Ex-34, 4-(2-(((2R,7aS)-2-fluorotetrahydro-1H-pyrrolizin-7a(5H)-yl)methoxy)-4-((S)-6-hydroxy-6-methyl-1,4-oxazepan-4-yl)pyrido[4′,3′:4,5]thieno[2,3-d]pyrimidin-8-yl)-6-methyl-1H-indazole-5-carbonitrile]: the concentration for half-maximal inhibition (IC50) turned out to be 900 nM in the experiment on PANC08.13 cells (PANC-08-13, KRAS-G12D, 2 hours); 1090 nM at KRAS-G13D; 494 nM on KRAS-WT; 175 nM in [1]; 261 nM at KRAS-G12D; 440 nM at KRAS-G12V.

In the case of `C[C@@]1(O)COCCN(c2nc(OC[C@@]34CCCN3C[C@H](F)C4)nc3sc4c(-c5c(C(F)F)ccc6[nH]ncc56)nccc4c23)C1` [Ex-134], the IC50 with PANC08.13 cells (setting [2]) came out at 2680 nM; at KRAS-G13D, 2310 nM; at KRAS-WT, 7210 nM; in experiment [1], 648 nM; at KRAS-G12D, 1160 nM; at KRAS-G12V, 876 nM.

As to `C#Cc1c(F)ccc2nc(N)cc(-c3nccc4c3sc3nc(OC[C@@]56CCCN5C[C@H](F)C6)nc(N5CCOC[C@@](C)(O)C5)c34)c12` [Ex-178, (S)-4-(8-(2-amino-5-ethynyl-6-fluoroquinolin-4-yl)-2-(((2R,7aS)-2-fluorotetrahydro-1H-pyrrolizin-7a(5H)-yl)methoxy)pyrido[4′,3′: 4.5]thieno[2,3-d]pyrimidin-4-yl)-6-methyl-1,4-oxazepan-6-ol], the IC50 came out at 1700 nM in the experiment with PANC08.13 cells (setting [2]); 1060 nM at KRAS-G13D; 1280 nM on KRAS-WT; 241 nM in experiment [1]; 906 nM at KRAS-G12D; 657 nM on KRAS-G12V.

`Cc1cc2[nH]ncc2c(-c2nccc3c4c(N5CCCC6(CC(=O)N6)C5)nc(OC[C@@]56CCCN5C[C@H](F)C6)nc4n(C)c23)c1C(F)(F)F` (single isomer, unassigned) [Ex-21]: the IC50 with AsPC-1 cells was 3260 nM; with PANC08.13 cells (PANC-08-13, KRAS-G12D, 2 hours) it was 1860 nM; on KRAS-WT it was 455 nM; in experiment [1], 25.3 nM; on KRAS-G12D, 59 nM; on KRAS-G12V, 34.4 nM.

Take `Cc1cc2[nH]ncc2c(-c2nccc3c4c(N5CCOC[C@@](C)(O)C5)nc(OC[C@]5(CN(C)C)CC5(F)F)nc4n(C)c23)c1C(F)(F)F` [Ex-20, (6S)-4-(2-(((R)-1-((dimethylamino)methyl)-2,2-difluorocyclopropyl)methoxy)-9-methyl-8-(6-methyl-5-(trifluoromethyl)-1H-indazol-4-yl)-9H-pyrido[4′,3′:4,5]pyrrolo[2,3-d]pyrimidin-4-yl)-6-methyl-1,4-oxazepan-6-ol]: the IC50 in the experiment with PANC08.13 cells (PANC-08-13, KRAS-G12D, 2 hours) stood at 80.6 nM; with MKN-1 cells it was 150 nM; with SW620 cells it was 539 nM; on KRAS-WT it was 125 nM; on KRAS-G12D, 37.9 nM; on KRAS-G12V it was 62.9 nM.

Values taken from patent US20260176289A1, “SMALL MOLECULE INHIBITORS OF KRAS PROTEINS” (Merck Sharp & Dohme LLC, priority 2022, published 2026).
